Laboratory results published in patent US5840684A, “Glycopeptide antibiotic derivatives” (Eli Lilly and Company, priority 1995, dated 1998).
In brackets after ≈: the same amount, converted by molar mass.

Tests used:
[1] = tested on: Staphylococcus aureus SA1199B; assay type: cell-based
Description: (§1) The MIC's were determined using a standard broth micro-dilution assay.

[2] = tested on: Staphylococcus aureus S13E; assay type: cell-based
Description: as §1

[3] = tested on: Staphylococcus aureus SA1199A; assay: broth micro-dilution MIC; assay type: cell-based
Description: as §1

[4] = tested on: Staphylococcus aureus 446; assay: broth micro-dilution MIC; assay type: cell-based
Description: as §1

[5] = tested on: Streptococcus pyogenes C203; assay: broth micro-dilution MIC; assay type: cell-based
Description: as §1

[6] = tested on: Staphylococcus aureus 491; assay: broth micro-dilution MIC; assay type: cell-based
Description: as §1

[7] = tested on: Staphylococcus aureus 489; assay: broth micro-dilution MIC; assay type: cell-based
Description: as §1

[8] = tested on: Entercoccus faecium 180-1; assay: broth micro-dilution MIC; assay type: cell-based
Description: as §1

[9] = tested on: Staphylococcus aureus 447; assay: broth micro-dilution MIC; assay type: cell-based
Description: as §1

Entercoccus faecium 276 = assay: broth micro-dilution MIC; assay type: cell-based
Description: as §1

[10] = tested on: Staphylococcus aureus X400; assay: broth micro-dilution MIC; assay type: cell-based
Description: as §1

[11] = tested on: Staphylococcus aureus SA1199; assay: broth micro-dilution MIC; assay type: cell-based
Description: as §1

[12] = tested on: vancomycin-susceptible enterococci; assay: broth micro-dilution, mean geometric MIC; assay type: cell-based, Enterococcus faecium and Enterococcus faecalis; settings: enterococci, 24-hour incubation
Entercoccus faecium 180 = assay: broth micro-dilution MIC; assay type: cell-based; settings: Entercoccus faecium 180
Description: (§2) The formula I compounds have in vitro and in vivo activity against Gram-positive pathogenic bacteria. The MIC's were determined using a standard broth micro-dilution assay.

[13] = tested on: Staphylococcus haemolyticus 105; assay: broth micro-dilution MIC; assay type: cell-based
Description: as §2

[14] = tested on: Streptococcus pneumoniae P1; assay: broth micro-dilution MIC; assay type: cell-based
Description: as §2

Entercoccus faecium 2041 = assay: broth micro-dilution MIC; assay type: cell-based; settings: Entercoccus faecium 2041
Description: as §2

[15] = tested on: Staphylococcus haemolyticus 415; assay: broth micro-dilution MIC; assay type: cell-based
Description: as §2

[16] = tested on: Enterococcus gallinarum 245; assay: broth micro-dilution MIC; assay type: cell-based; settings: Enterococcus gallinarum 245
Description: as §2

[17] = tested on: Staphylococcus epidermidis 270; assay: broth micro-dilution MIC; assay type: cell-based
Description: as §2

[18] = tested on: vancomycin-resistant enterococci; assay: broth micro-dilution, mean geometric MIC; assay type: cell-based, Enterococcus faecium and Enterococcus faecalis; settings: enterococci, 24-hour incubation
[19] = tested on: Staphylococcus aureus X778; assay: broth micro-dilution MIC; assay type: cell-based
Description: as §1

Compound | MIC [1] [µg/mL] | MIC [2] [µg/mL] | MIC [3] [µg/mL] | MIC [4] [µg/mL] | MIC [6] [µg/mL] | MIC [7] [µg/mL] | MIC [8] [µg/mL] | MIC [9] [µg/mL] | MIC (Entercoccus faecium 276) [µg/mL] | MIC [10] [µg/mL] | MIC [11] [µg/mL] | mean geometric MIC, Vancomycin Sensitive Strains [12] [µg/mL] | MIC (Entercoccus faecium 180) [µg/mL] | MIC [13] [µg/mL] | MIC [14] [µg/mL] | MIC (Entercoccus faecium 2041) [µg/mL] | MIC [15] [µg/mL] | MIC [16] [µg/mL] | MIC [17] [µg/mL] | mean geometric MIC, Vancomycin Resistant Strains [18] [µg/mL] | other results
CNC(CC(C)C)C(=O)NC1C(=O)NC(CC(N)=O)C(=O)NC2C(=O)NC3C(=O)NC(C(=O)NC(C(=O)O)c4cc(O)cc(O)c4-c4cc3ccc4O)C(OC3CC(C)(N)C(O)C(C)O3)c3ccc(c(Cl)c3)Oc3cc2cc(c3OC2OC(CO)C(O)C(O)C2OC2CC(C)(NCc3ccc4ccc5cccc6ccc3c4c56)C(O)C(C)O2)Oc2ccc(cc2Cl)C1O (stereo not shown) [Compound 16] | 1 (≈ 0.553 µM) | 1 (≈ 0.553 µM) | ≤ 0.06 | 4 (≈ 2.21 µM) | 1 (≈ 0.553 µM) | 0.5 (≈ 0.277 µM) | 0.125 (≈ 0.0692 µM) | 4 (≈ 2.21 µM) | 2 (≈ 1.11 µM) | 0.5 (≈ 0.277 µM) | 2 (≈ 1.11 µM) | 0.67 | 1 (≈ 0.553 µM) | 8 (≈ 4.43 µM) | ≤ 0.06 | 0.5 (≈ 0.277 µM) | 4 (≈ 2.21 µM) | 1 (≈ 0.553 µM) | 2 (≈ 1.11 µM) |  | MIC [5]: ≤ 0.06 µg/mL
CNC(CC(C)C)C(=O)NC1C(=O)NC(CC(N)=O)C(=O)NC2C(=O)NC3C(=O)NC(C(=O)NC(C(=O)O)c4cc(O)cc(O)c4-c4cc3ccc4O)C(OC3CC(C)(N)C(O)C(C)O3)c3ccc(c(Cl)c3)Oc3cc2cc(c3OC2OC(CO)C(O)C(O)C2OC2CC(C)(NCc3ccc(Oc4ccccc4Cl)c([N+](=O)[O-])c3)C(O)C(C)O2)Oc2ccc(cc2Cl)C1O (stereo not shown) [Compound 88] | 1 (≈ 0.539 µM) | 1 (≈ 0.539 µM) | ≤ 0.06 |  | 0.5 (≈ 0.27 µM) | 0.5 (≈ 0.27 µM) | ≤ 0.06 |  | ≤ 0.06 | ≤ 0.06 | 1 (≈ 0.539 µM) | 0.055 | 0.125 (≈ 0.0674 µM) | 1 (≈ 0.539 µM) | ≤ 0.06 | ≤ 0.06 | 2 (≈ 1.08 µM) | ≤ 0.06 | 1 (≈ 0.539 µM) | 1.7 | MIC [5]: ≤ 0.06 µg/mL; MIC [19]: 0.5 µg/mL (≈ 0.27 µM)
CN[C@H](CC(C)C)C(=O)N[C@H]1C(=O)N[C@@H](CC(N)=O)C(=O)N[C@H]2C(=O)N[C@H]3C(=O)N[C@H](C(=O)N[C@H](C(=O)O)c4cc(O)cc(O)c4-c4cc3ccc4O)[C@H](O[C@H]3C[C@](C)(N)[C@@H](O)[C@H](C)O3)c3ccc(c(Cl)c3)Oc3cc2cc(c3O[C@@H]2O[C@H](CO)[C@@H](O)[C@H](O)[C@H]2O[C@H]2C[C@](C)(NCc3ccc(-c4cccc(F)c4)cc3)[C@@H](O)[C@H](C)O2)Oc2ccc(cc2Cl)[C@H]1O [Compound 92] | 0.5 (≈ 0.281 µM) | 0.125 (≈ 0.0704 µM) | ≤ 0.06 | 2 (≈ 1.13 µM) | 1 (≈ 0.563 µM) | ≤ 0.06 | ≤ 0.06 | 0.5 (≈ 0.281 µM) | 0.125 (≈ 0.0704 µM) | 0.5 (≈ 0.281 µM) | 1 (≈ 0.563 µM) | 0.082 | 0.125 (≈ 0.0704 µM) | 2 (≈ 1.13 µM) | ≤ 0.06 | 0.125 (≈ 0.0704 µM) | 2 (≈ 1.13 µM) | 2 (≈ 1.13 µM) | 1 (≈ 0.563 µM) | 1.7 | MIC [5]: ≤ 0.06 µg/mL
CNC(CC(C)C)C(=O)NC1C(=O)NC(CC(N)=O)C(=O)NC2C(=O)NC3C(=O)NC(C(=O)NC(C(=O)O)c4cc(O)cc(O)c4-c4cc3ccc4O)C(OC3CC(C)(N)C(O)C(C)O3)c3ccc(c(Cl)c3)Oc3cc2cc(c3OC2OC(CO)C(O)C(O)C2OC2CC(C)(NCc3ccc(-c4ccccc4)cc3F)C(O)C(C)O2)Oc2ccc(cc2Cl)C1O (stereo not shown) [Compound 206] | 1 (≈ 0.563 µM) | 1 (≈ 0.563 µM) | ≤ 0.06 | 0.5 (≈ 0.281 µM) | ≤ 0.06 | 1 (≈ 0.563 µM) | ≤ 0.06 | 0.5 (≈ 0.281 µM) | ≤ 0.06 | 0.5 (≈ 0.281 µM) | 0.5 (≈ 0.281 µM) | 0.095 | ≤ 0.06 | 0.5 (≈ 0.281 µM) | ≤ 0.06 | 0.25 (≈ 0.141 µM) | 1 (≈ 0.563 µM) | 1 (≈ 0.563 µM) | 0.25 (≈ 0.141 µM) | 1.7 | MIC [19]: 0.5 µg/mL (≈ 0.281 µM)
CCCCCCCCC#CCCCCCCNC1(C)CC(OC2C(Oc3c4cc5cc3Oc3ccc(cc3Cl)C(OC3CC(C)(N)C(O)C(C)O3)C3NC(=O)C(NC(=O)C5NC(=O)C(CC(N)=O)NC(=O)C(NC(=O)C(CC(C)C)NC)C(O)c5ccc(c(Cl)c5)O4)c4ccc(O)c(c4)-c4c(O)cc(O)cc4C(C(=O)O)NC3=O)OC(CO)C(O)C2O)OC(C)C1O (stereo not shown) [Compound 207] | 16 (≈ 8.83 µM) | 8 (≈ 4.41 µM) | 4 (≈ 2.21 µM) | 8 (≈ 4.41 µM) | 1 (≈ 0.552 µM) | 4 (≈ 2.21 µM) | ≤ 0.06 | 8 (≈ 4.41 µM) | 0.25 (≈ 0.138 µM) | 8 (≈ 4.41 µM) | 8 (≈ 4.41 µM) | 0.50 | 1 (≈ 0.552 µM) | 8 (≈ 4.41 µM) | ≤ 0.06 | 0.125 (≈ 0.069 µM) | 1 (≈ 0.552 µM) | 1 (≈ 0.552 µM) | 8 (≈ 4.41 µM) | 1.2 | MIC [19]: 8 µg/mL (≈ 4.41 µM)
CNC(CC(C)C)C(=O)NC1C(=O)NC(CC(N)=O)C(=O)NC2C(=O)NC3C(=O)NC(C(=O)NC(C(=O)O)c4cc(O)cc(O)c4-c4cc3ccc4O)C(OC3CC(C)(N)C(O)C(C)O3)c3ccc(c(Cl)c3)Oc3cc2cc(c3OC2OC(CO)C(O)C(O)C2OC2CC(C)(NCc3ccc(-c4ccc([N+](=O)[O-])cc4)c([N+](=O)[O-])c3)C(O)C(C)O2)Oc2ccc(cc2Cl)C1O (stereo not shown) [Compound 212] | ≤ 0.06 | ≤ 0.06 | ≤ 0.06 | ≤ 0.06 | ≤ 0.06 | ≤ 0.06 | ≤ 0.06 |  | ≤ 0.06 | ≤ 0.06 | ≤ 0.06 | 0.036 | ≤ 0.06 | 1 (≈ 0.541 µM) | ≤ 0.06 | ≤ 0.06 | 1 (≈ 0.541 µM) | 1 (≈ 0.541 µM) | ≤ 0.06 | 0.50 | MIC [19]: ≤ 0.06 µg/mL
CNC(CC(C)C)C(=O)NC1C(=O)NC(CC(N)=O)C(=O)NC2C(=O)NC3C(=O)NC(C(=O)NC(C(=O)O)c4cc(O)cc(O)c4-c4cc3ccc4O)C(OC3CC(C)(N)C(O)C(C)O3)c3ccc(c(Cl)c3)Oc3cc2cc(c3OC2OC(CO)C(O)C(O)C2OC2CC(C)(NCc3ccc(-c4ccc(C)cc4)c(C)c3)C(O)C(C)O2)Oc2ccc(cc2Cl)C1O (stereo not shown) [Compound 225] | 2 (≈ 1.12 µM) | 1 (≈ 0.56 µM) |  | 1 (≈ 0.56 µM) | 1 (≈ 0.56 µM) | 2 (≈ 1.12 µM) | ≤ 0.06 | 1 (≈ 0.56 µM) |  | 1 (≈ 0.56 µM) | 1 (≈ 0.56 µM) | 0.072 | ≤ 0.06 | 0.5 (≈ 0.28 µM) | ≤ 0.06 | 0.125 (≈ 0.07 µM) | 4 (≈ 2.24 µM) | 4 (≈ 2.24 µM) | 1 (≈ 0.56 µM) | 0.63 | MIC [5]: ≤ 0.06 µg/mL; MIC [19]: 0.5 µg/mL (≈ 0.28 µM)
CNC(CC(C)C)C(=O)NC1C(=O)NC(CC(N)=O)C(=O)NC2C(=O)NC3C(=O)NC(C(=O)NC(C(=O)O)c4cc(O)cc(O)c4-c4cc3ccc4O)C(OC3CC(C)(N)C(O)C(C)O3)c3ccc(c(Cl)c3)Oc3cc2cc(c3OC2OC(CO)C(O)C(O)C2OC2CC(C)(NCCCCCCCCCCCCc3ccccc3)C(O)C(C)O2)Oc2ccc(cc2Cl)C1O (stereo not shown) [Compound 234] | 8 (≈ 4.36 µM) | 8 (≈ 4.36 µM) | 2 (≈ 1.09 µM) | 4 (≈ 2.18 µM) | 8 (≈ 4.36 µM) | 4 (≈ 2.18 µM) | 1 (≈ 0.544 µM) | 8 (≈ 4.36 µM) | 4 (≈ 2.18 µM) | 8 (≈ 4.36 µM) | 8 (≈ 4.36 µM) | 2 | 1 (≈ 0.544 µM) | 8 (≈ 4.36 µM) |  | 0.5 (≈ 0.272 µM) | 16 (≈ 8.71 µM) | 16 (≈ 8.71 µM) | 4 (≈ 2.18 µM) | 2 | MIC [19]: 4 µg/mL (≈ 2.18 µM)
